Data reported in a melting point compilation (Tetko et al.; mined from patent text by program, amines drawn as free bases though some values may be those of a salt).

Row | Compound | melting point [°C]
1 | OC1c2cc(OCc3nc4cc(F)ccc4s3)ccc2OCC1Oc1ccccc1 (configuration not stated) | 144 to 145
2 | CNC(=O)c1ccccc1CCc1ccc(Br)cc1 | 138 to 141
3 | COc1cc(Cl)c2ncccc2c1 | 74 to 75
4 | COC(=O)[C@H]1OC(O)[C@H](OC(=O)C(C)C)[C@@H](OC(=O)C(C)C)[C@@H]1OC(=O)C(C)C (some centres not stated) | 89
5 | O=c1[nH]c2cc(F)ccc2c(=O)n1-c1ccccc1 | 304 to 306
6 | COc1cccc(Oc2cccnc2C#N)c1 | 112 to 114
7 | O=C1c2ccccc2C(OCCCl)N1c1ccccc1 (configuration not stated) | 71
8 | N#Cc1cnc2cc(O)ccc2c1Nc1ccc(Cl)cc1F | 295 to 305
9 | N#Cc1ccc(S(=O)(=O)N2CCn3c(c(C(N)=O)c(Cl)c3-c3ccccc3)C2)cc1 | 205 to 206
10 | COc1ccc(-c2nc(Sc3ccc(Cl)c(Cl)c3)[nH]c2-c2ccc(OC)cc2)cc1 | 113 to 115
11 | O=Cc1ccc(C(F)(F)F)cc1Oc1ccccc1 | 57 to 59
12 | CC(C)CCCC(C)C1CCC2C3CC=C4CC(Br)CCC4(C)C3CCC12C (configuration not stated) | 99.5 to 100
13 | CCCN(CCC)[C@H]1Cc2c[nH]c3ccc(-c4ccno4)c(c23)C1 | 126 to 127
14 | CN1CCN(c2ccccc2C=C2C(=O)N(Cc3ccc(Cl)c(Cl)c3)c3ccccc32)CC1 | 120 to 124
15 | CCOC(=O)c1cn(C2CC2)c2nc(Cl)c(F)c(C)c2c1=O | 170 to 171
16 | O=[N+]([O-])c1ccc(Cn2cncn2)cc1 | 98 to 100
17 | N#Cc1nc2cc(Cl)c3cccnc3c2o1 | 214 to 215
18 | O=C(O[C@@H]1[C@@H](Br)C[C@]2(O)C[C@H]1OC2=O)c1ccccc1 | 142 to 143
19 | COc1cc(Nc2cc(-c3ccccc3)on2)ccc1-c1cnco1 | 173 to 175
20 | Cc1ccc(Cl)c(N2C(=O)C(=NO)c3ccccc32)c1Cl | 190 to 191
21 | O=C(c1ccccc1)c1cccc2c1SCC2C(=O)O (configuration not stated) | 153 to 156
22 | CN(C)c1ccc(C(=O)c2cccc(N)c2)cc1 | 110
23 | COC(=O)N1C=C(C=O)CC([C@@H]2CCCN2C)=C1 | 78 to 80

Row | Compound | melting point [°C]
24 | O=C(CN1C(=O)C(NC(=O)Nc2ccc(Cl)cc2)N=C(c2ccccc2)c2ccccc21)NCc1ccccc1 (configuration not stated) | 260 to 262
25 | COC(=O)CCCCCCCCOC1OC(CO)C(OC2OC(C)C(O)C(O)C2O)C(O)C1NC(C)=O (configuration not stated) | 145 to 146
26 | CCCCNCCOc1ccc(NC(=O)c2c[nH]c3c2C(=O)CCC3)cc1F | 290 to 292
27 | c1ccc(-c2nnc3n2-c2ccccc2Cn2cccc2-3)nc1 | 255 to 257
28 | N#Cc1cc(C(=O)NNC(=O)c2occ(-c3ccccc3)c2-c2ccccc2)ccc1O | 178 to 179
29 | Cc1ccc(=O)n(-c2cccc(C(F)(F)F)c2)c1 | 95
30 | O=c1c2c(-c3ccc(F)cc3)n[nH]c2c2cccnc2n1-c1ccccc1 | 300
31 | COc1ccc(S(=O)(=O)N2C(=O)C(N)(c3cc(OC)ccc3OC)c3cc(Cl)ccc32)c(OC)c1 (configuration not stated) | 191
32 | CC(=O)N1CCC(Oc2c(F)c(F)c(F)c(F)c2F)(c2ccccc2)CC1 | 115 to 120
33 | FC(F)c1nc2ccccc2n1-c1nc(-c2cncnc2)cc(N2CCOCC2)n1 | 209 to 211
34 | O=C(O)c1cc2cc3[nH]c(=O)[nH]c3cc2[nH]1 | > 270
35 | COC(=O)c1ccc(N2CC(CNC(C)=S)OC2=O)cc1F (configuration not stated) | 152 to 154
36 | Nc1c(CC(=O)O)cccc1Oc1ccccc1F | 122 to 123
37 | Nc1cccc(C(F)(F)F)c1CCl | 155 to 161
38 | COCCN1CCN(CCc2ccc(Nc3ncc4c(n3)-c3ccccc3[C@H](c3ccc(F)cc3)C4)cc2)CC1 | 195 to 198
39 | CC(C)(C)C1CSC2(CCC(C)(C(Cl)Cl)CC2)SC1 (configuration not stated) | 163
40 | Cc1cccc2[nH]nnc12 | 145 to 146
41 | O=c1[nH]c2ccccc2n1CCCN1CCN(C(c2ccc(F)cc2)c2ccc(F)cc2)CC1 | 197
42 | O=C(NC(=O)c1ccc(C(F)(F)F)cc1)Nc1ccc(Cl)cc1 | 260
43 | O=C(C1CCCCC1)C1CCN(Cc2cc(O)c(O)cc2[N+](=O)[O-])CC1 | 240
44 | CCOC(=O)c1ncn2c1CN=C(NCC(OC)OC)c1sccc1-2 | 134
45 | COc1ccc(C(=CC=O)c2ccc(OC)c(OC)c2)cc1OC | 129 to 130
46 | N#CC(N)=C(C#N)N=Cc1c(Cl)cc(C(F)(F)F)cc1Cl | 218 to 219

Row | Compound | melting point [°C]
47 | COc1cc(Nc2nc(O)c3c(n2)C(c2ccccc2)CN(C)C3)ccc1-n1cnc(C)c1 (configuration not stated) | 152 to 155
48 | CCn1c2cccc(C=O)c2c2c3ccccc3ccc21 | 90.5 to 91.5
49 | CC(=O)Oc1ccccc1C(=O)NC(Oc1ccc2ccccc2c1)C(Cl)(Cl)Cl (configuration not stated) | 158 to 160
50 | CC(C)CCCC(C)C1CC=C2C3=C(CCC21C)C1(C)CCC(F)CC1CC3 (configuration not stated) | 98.6
51 | COc1cccc(NC(C)=O)c1C(=O)NC1CCN(C(C)CC(C(=O)N(C)C)(c2ccccc2)c2ccccc2)CC1O (configuration not stated) | 146
52 | NC(=O)c1ccc(Nc2nc(OCC3CCCCC3)c3nc[nH]c3n2)cc1 | 156 to 158
53 | Cc1cc(C)cc(P(c2cc(C)cc(C)c2)c2cccc3c2-c2c(cccc2P(c2cc(C)cc(C)c2)c2cc(C)cc(C)c2)OCCCO3)c1 | 232 to 234
54 | COC(=O)c1ccc(Cn2ccn(C3CCc4ccccc4C3)c2=S)cc1 (configuration not stated) | 133 to 135
55 | Nc1c(OCC(O)CN2CCC(COc3ccccc3)CC2)cccc1[N+](=O)[O-] (configuration not stated) | 117 to 118
56 | CCCn1cc(-c2c(-c3ccccc3)nn3ccncc23)ccc1=O | 165 to 166
57 | CC(=NO)c1ccc(N)c(S(N)(=O)=O)c1 | 230 to 233
58 | c1ccc(CCC2CCN(Cc3c[nH]c4ncccc34)CC2)cc1 | 162 to 163
59 | CC(C)(C)c1n[nH]c(SCCNC(=O)Nc2ccc(C(F)(F)F)cc2)n1 | 238 to 240
60 | CC(Cc1c[nH]c2ccccc12)(NC(=O)OC1C2CC3CC(C2)CC1C3)C(=O)NCC(CSCC(=O)O)c1ccccc1 (configuration not stated) | 78 to 93
61 | CCCCc1ccc(CCCCCCC(=O)O)cc1 | 32 to 33
62 | CN(C)CCc1c[nH]c2ccc(CCC(=O)O)cc12 | 195 to 200
63 | COc1ccc(CC2(C)CN(C(c3ccccc3)c3ccccc3)CCN2C)cc1OC (configuration not stated) | 102
64 | O=C1CC2(CCCCC2Cc2ccccc2)S(=O)(=O)CCN1 (configuration not stated) | 130 to 135
65 | O=C1c2ccccc2-n2cnc(I)c2[C@@H]2CCCN12 | 222 to 223
66 | COC(=O)c1cccc(-c2cccc([N+](=O)[O-])c2)c1 | 88 to 89
67 | COc1nc(C(F)(F)C(F)(F)F)c(F)c(=O)n1-c1cc(OC(C)C)c(Cl)cc1F | 69 to 71

The remaining lines, values ahead:

Row | melting point [°C] | Compound
68 | 112 | CCOC(=O)c1cc2c(nc1C)C(=Cc1ccc(OC(C)=O)cc1)CCC2
69 | 151 | CCOC(=O)CN1CC(=O)N(C)c2ccc(NC(=O)NCc3ccccc3)cc2C1=O
70 | 126 to 128 | COc1cc(C(=O)NC2OCC(c3ccccc3)N3CCCCC23)cc(OC)c1OC (configuration not stated)
71 | 63 to 70 | Cc1cc(SC2=C(O)CC(CCc3ccsc3)(C(C)C)OC2=O)c(C(C)(C)C)cc1CO (configuration not stated)
72 | 153 to 155 | COC(=O)c1c(O)c2ccccc2n1-c1ccc(OC)cc1
73 | > 270 | CC1(C)CC(NC(=O)c2ccc(-c3cc4cc(Cl)c(Cl)cc4[nH]3)c(O)c2)CC(C)(C)N1
74 | 132 to 134 | COC(=O)C(O)C(Sc1ccc2ccccc2c1N)c1ccc(OC)cc1 (configuration not stated)
75 | 91 to 92 | COC(=O)c1cc(C(=O)OC)cc(-c2ccccc2)c1
76 | 156 | Cc1c2c(c(Br)c(C(C)C)c1OCc1ccccc1)OC(C)(C)C2
77 | 123 | CCCN(CCCc1c[nH]c2ccc(F)cc12)C1COc2c(C(N)=O)ccc(F)c2C1 (configuration not stated)
78 | 194 to 196 | CC(C)C(C)(NC(=O)c1nc2ccc(OC(F)F)cc2cc1C(=O)O)C(N)=O (configuration not stated)
79 | 128 to 130 | CCNc1cccnc1N1CCN(C(=O)c2ccc(C(=O)NC(C)(C)CO)cn2)CC1
80 | 185 to 187 | O=c1c(CCO)cnc2c3ccccc3ccn12
81 | 137 to 139 | COc1ccc(N2CCN(c3c(C)c(C)c4c(c3C)CC(C)(CO)O4)CC2)cc1 (configuration not stated)
82 | 131 | COC(=O)C(Cc1cccc(-c2nc(=O)c3ccccc3s2)c1)NC(=O)c1ccccc1 (configuration not stated)
83 | 158 | CC(C)NCC(=O)Nc1ccc2c(c1)C(=O)c1cc(NC(=O)CNC(C)C)ccc1C2=O
84 | 120 to 122 | C[C@@H]1Cc2cc(N3C[C@H](CN)OC3=O)ccc2N1C(=O)OCc1ccccc1
85 | 144 to 146 | COCCNC(=O)COc1ccn2nc(-c3ccccc3)c(-c3ccc(=O)n(C(C)C)n3)c2c1
86 | 181 to 182 | CC(C)(C)COc1ccc(NC(=O)c2cccn2-c2ccc(F)cc2)cc1C#N
87 | 151 to 153 | CC(C)(C)OC(=O)N1CCc2cc(OCc3ccccc3)c(OCc3ccccc3)cc2C1Cc1ccc(NC(=O)c2ccccc2)c(I)c1 (configuration not stated)
88 | 148 to 149 | Cc1c(C)c2c(c(C)c1O)CCC(C)(COc1ccc(CC(Cl)C(=O)O)cc1)O2 (configuration not stated)
89 | 211 to 213 | Cc1nc(-c2ccc(OC(C)C)c([N+](=O)[O-])c2)sc1C(=O)O
90 | 153 to 155 | CN(C)CCNc1cc(Oc2ccc3c(C(=O)Nc4cc(C(C)(C)C)nn4-c4ccc(F)cc4)cccc3c2)ncn1
91 | 155 to 163 | Cc1nc(Br)sc1C(=O)N[C@H](C)[C@](O)(Cn1cncn1)c1ccc(F)cc1F
92 | 190 to 192 | O=C1C=C(O)C(=O)c2cc(-c3ccccc3)ccc21
93 | 218 to 221 | Cc1cc(-c2sc(N3CCN(Cc4ccc(F)cc4)C3=O)nc2C)n[nH]1
94 | 140 | Cc1c(NC(=O)c2ccc(OCCCCF)cc2F)ccc2cc(CN3CCCC3)cnc12
95 | 226 to 227 | CC(C)C1(C)NC(c2nc3ccccc3cc2C=O)=NC1=O (configuration not stated)
96 | 131 to 133 | CCOc1cn(C)cc(-c2cccc(C(F)(F)F)c2)c1=O
97 | 151 to 152 | CC(C)(C)OC(=O)CN1CC(c2cccs2)SCC(N2C(=O)c3ccccc3C2=O)C1=O (configuration not stated)
